In ChEMBL document CHEMBL1152602, “A new therapeutic approach in Parkinson's disease: some novel quinazoline derivatives as dual selective phosphodiesterase 1 inhibitors and anti-inflammatory agents” (Bioorg Med Chem, 2009):

What was measured:
Rattus norvegicus [1] = test: Antiinflammatory activity in Sprague-Dawley rat assessed as inhibition of carrageenan-induced paw edema at 50 mg/kg, po treated 60 mins before carrageenan challenge measured after 180 mins; format: functional
[2] = Inhibition of PDE1
Rattus norvegicus [3] = test: Antiinflammatory activity in Sprague-Dawley rat assessed as inhibition of carrageenan-induced paw edema at 50 mg/kg, po treated 60 mins before carrageenan challenge measured after 90 mins; format: functional
Rattus norvegicus [4] = test: Antiinflammatory activity in Sprague-Dawley rat assessed as inhibition of carrageenan-induced paw edema at 50 mg/kg, ip treated 60 mins before carrageenan challenge measured after 180 mins; format: functional; conditions: route intraperitoneal
Rattus norvegicus [5] = test: Toxicity in Sprague-Dawley rat assessed as gastrointestinal ulceration at 200 mg/kg, po once daily for 5 days; format: organism-based; design: dose 200 mg/kg, route oral; conditions: in vivo, 120 h
Rattus norvegicus [6] = test: Antiinflammatory activity in Sprague-Dawley rat assessed as inhibition of carrageenan-induced paw edema at 50 mg/kg, ip treated 60 mins before carrageenan challenge measured after 90 mins; format: functional; conditions: route intraperitoneal

Compound | IC50 [2] | inhibition in vivo at 50 mg/kg (Rattus norvegicus [1]) | inhibition in vivo at 50 mg/kg (Rattus norvegicus [3]) | inhibition in vivo at 50 mg/kg (Rattus norvegicus [4]) | Activity (Rattus norvegicus [5]) | inhibition in vivo at 50 mg/kg (Rattus norvegicus [6])
COc1ccc(-c2csc3ncn4c(=O)c5ccccc5nc4c23)cc1 | 66.9 µM | 71% | 57% | 74% | Non-toxic | 69%
Cc1ccc(-c2cc(-c3ccc(Cl)cc3)c3c(ncn4c(=O)c5ccccc5nc34)n2)cc1 | 98.2 µM | 49% | 37% | 53% | – | 38%
Cc1ccc(-c2cc(-c3ccc(Cl)cc3)c3c(ncn4c(=O)c5cc(Br)ccc5nc34)n2)cc1 | 66.4 µM | 87% | 80% | 89% | – | 82%
O=c1c2cc(Br)ccc2nc2c3c(-c4ccccc4)cc(-c4ccc(Cl)cc4)nc3ncn12 | 95.1 µM | 77% | 67% | 80% | Non-toxic | 69%
COc1ccc(-c2cc(-c3ccccc3)nc3ncn4c(=O)c5cc(Br)cc(Br)c5nc4c23)cc1 | 33.7 µM | 82% | 76% | 86% | Non-toxic | 78%
Cc1ccc(-c2cc(Cc3ccco3)c3c(ncn4c(=O)c5ccccc5nc34)n2)cc1 | 56.4 µM | 22% | 11% | 20% | – | 6%
COc1ccc(-c2cc(-c3cccc([N+](=O)[O-])c3)c3c(ncn4c(=O)c5cc(Br)ccc5nc34)n2)cc1 | 101 µM | 25% | 12% | 30% | – | 13%
COc1ccc(-c2cc(-c3cccc([N+](=O)[O-])c3)c3c(ncn4c(=O)c5ccccc5nc34)n2)cc1 | 39.9 µM | 9% | 3% | 16% | – | 3%
COc1ccc(-c2cc(-c3ccccc3)nc3ncn4c(=O)c5cc(Br)ccc5nc4c23)cc1 | 76.6 µM | 41% | 26% | 44% | – | 28%
O=c1c2ccccc2nc2c3c(-c4ccccc4)cc(-c4ccc(Cl)cc4)nc3ncn12 | 80.6 µM | 26% | 18% | 34% | – | 18%
O=c1c2ccccc2nc2c3c(-c4ccc(Cl)cc4)csc3ncn12 | 124 µM | 53% | 37% | 57% | Non-toxic | 42%
O=c1c2ccccc2nc2c3c(-c4ccc([N+](=O)[O-])cc4)cc(-c4ccc([N+](=O)[O-])cc4)nc3ncn12 | 83.7 µM | 11% | 5% | 23% | – | 11%
Cc1ccc(-c2cc(-c3ccccc3)nc3ncn4c(=O)c5ccccc5nc4c23)cc1 | 91.8 µM | 15% | 8% | 20% | – | 8%
O=c1c2cc(Br)cc(Br)c2nc2c3c(-c4ccc([N+](=O)[O-])cc4)cc(-c4ccc([N+](=O)[O-])cc4)nc3ncn12 | 72.5 µM | 54% | 46% | 56% | – | 47%
O=c1c2cc(Br)ccc2nc2c3c(-c4ccc([N+](=O)[O-])cc4)cc(-c4ccc([N+](=O)[O-])cc4)nc3ncn12 | 101 µM | 22% | 10% | 28% | – | 11%
COc1ccc(-c2cc(-c3cccc([N+](=O)[O-])c3)c3c(ncn4c(=O)c5cc(Br)cc(Br)c5nc34)n2)cc1 | 72 µM | 74% | 65% | 78% | Non-toxic | 68%
Cc1ccc(-c2csc3ncn4c(=O)c5ccccc5nc4c23)cc1 | 230 µM | 62% | 48% | 68% | Non-toxic | 51%
Cc1ccc(-c2csc3ncn4c(=O)c5cc(Br)ccc5nc4c23)cc1 | 85.3 µM | 52% | 40% | 56% | – | 42%
COc1ccc(-c2cc(-c3ccccc3)nc3ncn4c(=O)c5ccccc5nc4c23)cc1 | 72.1 µM | 18% | 7% | 22% | – | 8%
Cc1ccc(-c2cc(Cc3ccco3)c3c(ncn4c(=O)c5cc(Br)ccc5nc34)n2)cc1 | 72.5 µM | 37% | 13% | 41% | – | 24%
Cc1ccc(-c2cc(-c3ccccc3)nc3ncn4c(=O)c5cc(Br)ccc5nc4c23)cc1 | 78.1 µM | 68% | 57% | 70% | Non-toxic | 60%
COc1ccc(-c2csc3ncn4c(=O)c5cc(Br)ccc5nc4c23)cc1 | 82.2 µM | 59% | 50% | 70% | – | 53%
Cc1sc2ncn3c(=O)c4ccccc4nc3c2c1C | 295 µM | 84% | 74% | 86% | Non-toxic | 76%
COc1ccc2c(c1)c(CC(=O)O)c(C)n2C(=O)c1ccc(Cl)cc1 [INDOMETHACIN] | – | 79% | 72% | 83% | Toxic | 76%
CC(C)Cn1c(=O)n(C)c(=O)c2nc[nH]c21 [ISOBUTYLMETHYLXANTHINE] | 24.7 µM | – | – | – | – | –

Now from value to molecule, other results behind:

IC50 [2] | Compound | inhibition in vivo at 50 mg/kg (Rattus norvegicus [1]) | inhibition in vivo at 50 mg/kg (Rattus norvegicus [3]) | inhibition in vivo at 50 mg/kg (Rattus norvegicus [4]) | Activity (Rattus norvegicus [5]) | inhibition in vivo at 50 mg/kg (Rattus norvegicus [6])
83.5 µM | O=c1c2cc(Br)cc(Br)c2nc2c3c(-c4ccc(Cl)cc4)csc3ncn12 | 10% | 2% | 17% | – | 2%
52.4 µM | Cc1ccc(-c2cc(-c3ccccc3)nc3ncn4c(=O)c5cc(Br)cc(Br)c5nc4c23)cc1 | 70% | 59% | 72% | Non-toxic | 62%
57.6 µM | Cc1ccc(-c2cc(-c3ccc(Cl)cc3)c3c(ncn4c(=O)c5cc(Br)cc(Br)c5nc34)n2)cc1 | 80% | 72% | 83% | – | 78%
95.7 µM | Cc1sc2ncn3c(=O)c4cc(Br)cc(Br)c4nc3c2c1C | 22% | 10% | 27% | – | 11%
146 µM | Cc1sc2ncn3c(=O)c4cc(Br)ccc4nc3c2c1C | 71% | 63% | 76% | – | 66%
104 µM | O=c1c2cc(Br)cc(Br)c2nc2c3c4c(sc3ncn12)CCCC4 | 15% | 5% | 21% | – | 4%
61.9 µM | Cc1ccc(-c2csc3ncn4c(=O)c5cc(Br)cc(Br)c5nc4c23)cc1 | 33% | 20% | 37% | – | 22%
78 µM | O=c1c2cc(Br)cc(Br)c2nc2c3c(-c4ccccc4)cc(-c4ccc(Cl)cc4)nc3ncn12 | 42% | 28% | 47% | – | 30%
228 µM | O=c1c2ccccc2nc2c3c4c(sc3ncn12)CCCC4 | 75% | 70% | 81% | Non-toxic | 71%
90.5 µM | O=c1c2cc(Br)ccc2nc2c3c(-c4ccc(Cl)cc4)csc3ncn12 | 44% | 26% | 50% | – | 29%
60.5 µM | COc1ccc(-c2csc3ncn4c(=O)c5cc(Br)cc(Br)c5nc4c23)cc1 | 29% | 15% | 31% | – | 16%
128 µM | O=c1c2cc(Br)ccc2nc2c3c4c(sc3ncn12)CCCC4 | 68% | 60% | 71% | – | 63%
